# Test results reported in patent US10906951B2, “Modified natural killer cells and natural killer cell lines having increased cytotoxicity” (ONK THERAPEUTICS LIMITED, priority 2015, dated 2021).
# Like-named read-outs stand apart in the source and are kept apart here.
# What was measured:
# CTLA4 gene = assay: gRNA cleavage activity, T7E1 mismatch detection assay in K562 cells, CTLA4; type: cell-based, human; conditions: CRISPR/Cas9, T7E1 mismatch assay, FIG. 5
# Description: (§1) Two gRNA candidates were selected for each target gene and their cleavage efficacies in K562 cells determined. The sequences of the gRNA candidates are shown in Table 1 and the Protospacer Adjacent Motif (PAM) relates to the last 3 bases of the sequence. The flanking regions of the gRNA sequences on the LIR2 gene (SEQ ID NO: 1) and the CTLA4 gene (SEQ ID NO: 7) are shown in FIGS. 1 and 2, respectively.
# (§2) K562 cells were transfected with the prepared gRNA constructs (FIG. 3) and subsequently harvested for PCR amplification. The presence of GFP expression was used to report successful incorporation of the gRNA construct into the K562 cells. This confirmed expression of the Cas9 gene and therefore the ability to knock out expression of the LIR2 and CTLA4 genes.
# (§3) The cleavage activity of the gRNA constructs was determined using an in vitro mismatch detection assay. T7E1 endonuclease I recognises and cleaves non-perfectly matched DNA, allowing the parental LIR2 and CTLA4 genes to be compared to the mutated genes following CRISPR/Cas9 transfection and non-homologous end joining (NHEJ).
# LIR2 gene = assay: gRNA cleavage activity, T7E1 mismatch detection assay in K562 cells, LIR2; type: cell-based, human; conditions: CRISPR/Cas9, T7E1 mismatch assay, FIG. 4
# Description: as §1, §2, §3
# DR4 = DR4 (Homo sapiens, UniProt O00220); conditions: surface plasmon resonance; WO 2009/077857; cited from earlier work
# decoy receptor DcR1 = target: T1, decoy receptor DcR1 (Homo sapiens, UniProt O14798); conditions: surface plasmon resonance; WO 2009/077857; cited from earlier work
# T1 sequence (O14798 26-236): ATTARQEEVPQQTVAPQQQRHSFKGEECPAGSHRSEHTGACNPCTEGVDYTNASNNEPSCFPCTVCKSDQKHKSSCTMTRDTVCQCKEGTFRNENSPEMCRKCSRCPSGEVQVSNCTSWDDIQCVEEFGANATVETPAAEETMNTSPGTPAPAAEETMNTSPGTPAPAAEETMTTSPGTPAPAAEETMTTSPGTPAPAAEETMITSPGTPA
# DR5 = conditions: low dose, 24 hours, FIG. 18
# Procedure: Bortezomib was bought from Millennium Pharmaceuticals. Mouse anti-human DR5-AF647 (catalog number: 565498) was bought from BD Pharmingen. The stained cell samples were analyzed on BD FACS Canto II. (1) MM cell lines RPM18226 and MM1.S were grown in RPM11640 medium (Sigma, St Louis, Mo., USA) supplemented with 2 mM L-glutamine, 10 mM HEPES, 24 mM sodium bicarbonate, 0.01% of antibiotics and 10% fetal bovine serum (Sigma, St Louis, Mo., USA), in 5% CO2 atmosphere at 37° C. (2) MM cells were seeded in 6-well plates at 1×10^6/mL, 2 mL/well. (3) MM cells were then treated with different doses of Bortezomib for 24 hours. (4) DR5 expression in Bortezomib treated/untreated MM cells was then analyzed by flow cytometry (FIG. 18).
# MM cells = tested on: MM cells
# Procedure: (1) MM cell lines RPM18226 and MM1.S were grown in RPM11640 medium (Sigma, St Louis, Mo., USA) supplemented with 2 mM L-glutamine, 10 mM HEPES, 24 mM sodium bicarbonate, 0.01% of antibiotics and 10% fetal bovine serum (Sigma, St Louis, Mo., USA), in 5% CO2 atmosphere at 37° C.
# (2) MM cells were seeded in 6-well plates at 1×10^6/mL, 2 mL/well.
# (3) MM cells were then treated with different doses of Bortezomib for 24 hours.
# MM1.S cells = assay: Bortezomib-induced sensitization of MM1.S cells to KHYG-1 cells expressing TRAIL variant; type: cell-based; conditions: MM1.S pretreated with 2.5 nM for 24 hours, 1:1 co-culture 12 hours, FIG. 19
# Procedure: KHYG-1 cells were transfected with the TRAIL variant (TRAIL D269H/E195R), as described above in Example 6.
# (1) Bortezomib treated/untreated MM1.S cells were used as target cells. MM1.S cells were treated with 2.5 nM of Bortzeomib or vehicle (control) for 24 hours.
# (2) 6 hours after electroporation of TRAIL variant mRNA, KHYG-1 cells were then cultured with MM cells in 12-well plate. After washing, cell concentrations were adjusted to 1×10^6/mL, before mixing KHYG-1 and MM1.S cells at 1:1 ratio to culture for 12 hours.
# (3) Flow cytometric analysis of the cytotoxicity of KHYG-1 cells was carried out. The co-cultured cells were collected, washed and then stained with CD2-APC antibody (5 uL/test), AnnexinV-FITC (5 uL/test) and SYTOX-Green (5 uL/test) using AnnexinV binding buffer.
# (4) Data were further analyzed using FlowJo 7.6.2 software. CD2-negative population represents MM1.S cells. KHYG-1 cells are strongly positive for CD2. Finally, the AnnexinV-FITC and SYTOX-Green positive cells in the CD2-negative population were analyzed.
# Flow cytometric analysis of apoptosis was performed in Bortezomib-pretreated/untreated MM1.S cells co-cultured with KHYG-1 cells electroporated with/without TRAIL variant (FIG. 19).
# perforin = assay: CMA-induced reduction of perforin expression in KHYG-1 cells, flow cytometry; type: cell-based, human; conditions: 100 nM for 2 hours, FIG. 20
# Procedure: Mouse anti-human perforin-AF647 (catalog number: 563576) was bought from BD pharmingen. Concanamycin A (catalog number: SC-202111) was bought from Santa Cruz Biotechnology. The stained cell samples were analyzed using a BD FACS Canto II.
# (1) KHYG-1 cells were cultured in RPM11640 medium containing 10% FBS (fetal bovine serum), 2 mM L-glutamine, penicillin (100 U/mL)/streptomycin ([…]), and IL-2 (10 ng/mL).
# (§4) (2) KHYG-1 cells (6 hours after electroporation, cultured in penicillin/streptomycin free RPMI1640 medium) were further treated with 100 nM CMA or equal volume of vehicle (DMSO) for 2 hours.
# (3) The cells were collected (1×10^6 cells/test) by centrifugation (1500 rpm×5 minutes) and the supernatant was aspirated.
# (4) The cells were fixed in 4% paraformaldehyde in PBS solution at room temperature for 15 minutes.
# (5) The cells were washed with 4 mL of FACS Buffer (PBS, 0.5-1% BSA, 0.1% sodium azide) twice.
# (6) The cells were permeabilized with 1 mL of PBS/0.1% saponin buffer for 30 minutes at room temperature.
# (7) The cells were washed with 4 mL of PBS/0.1% saponin buffer.
# (8) The cells were re-suspended in 100 uL of PBS/0.1% saponin buffer, before adding 5 uL of the antibody to each tube and incubating for 30 minutes on ice. […]
# (11) The cells were analyzed on the flow cytometer (BD FACS Canto II). […]
# KHYG-1 cells = assay: KHYG-1 cell viability after CMA treatment; type: cell-based; conditions: 100 nM CMA or vehicle, FIG. 21
# Procedure: as §4
molecule,measurement,setting,value
g15 gRNA: CTLA4 g15 gRNA sequence CCTTGTGCCGCTGAAATCCAAGG (expressed or natural sequence; listed as Homo sapiens),gRNA cleavage efficiency (CTLA4 knockout),CTLA4 gene,26%
g9 gRNA: LIR2 g9 gRNA sequence GAGTCACAGGTGGCATTTGGCGG (expressed or natural sequence; listed as Homo sapiens),gRNA cleavage efficiency (LIR2 knockout),LIR2 gene,11%
Wildtype TRAIL: wildtype TRAIL ligand; DNA sequence SEQ ID NO: 13,Kd,DR4,> 2 nM
same,Kd,decoy receptor DcR1,> 20 nM
g7 gRNA: CTLA4 g7 gRNA sequence CACTCACCTTTGCAGAAGACAGG (expressed or natural sequence; listed as Homo sapiens),gRNA cleavage efficiency (CTLA4 knockout),CTLA4 gene,32%
CC(C)C[C@H](NC(=O)[C@H](Cc1ccccc1)NC(=O)c1cnccn1)B(O)O [Bortezomib],DR5 expression,DR5; MM1.S cells,increase DR5 expression
same,DR5 expression,DR5; RPMI8226 cells,increase DR5 expression
same,toxicity at high doses,MM cells; high doses,high toxicity resulting in most of the MM cells dying
same,induction of apoptosis associated with DR5 upregulation,"MM cells; low dose, data not shown",minor induction of apoptosis
same,sensitivity of MM cells to KHYG-1 cells expressing the TRAIL variant,MM1.S cells,induced sensitivity of MM cells
"C/C=C/[C@H]1O[C@@](O)([C@@H](C)[C@H](O)[C@H](C)[C@H]2OC(=O)/C(OC)=C/C(C)=C/[C@@H](C)[C@@H](O)[C@@H](CC)[C@@H](O)[C@H](C)C/C(C)=C/C=C/[C@@H]2OC)C[C@@H](O[C@H]2C[C@@H](O)[C@H](OC(N)=O)[C@@H](C)O2)[C@@H]1C [CMA, Concanamycin A]",perforin expression level,perforin,significantly decreased
same,viability of KHYG-1 cells,KHYG-1 cells,no negative effects
g18 gRNA: LIR2 g18 gRNA sequence CGAATCGCAGGTGGTCGCACAGG (expressed or natural sequence; listed as Homo sapiens),gRNA cleavage efficiency (LIR2 knockout),LIR2 gene,10%
